Consider four sequences from publication PMC12775124, “CUL4A-DDB1-DCAF10 is an N-recognin for N-terminally acetylated Src kinases” (Nature Communications, 2026).

Read-outs that look alike come from different tables or passages of the source. Some results are limits rather than exact numbers.

One assay addresses T1, human NatA (Homo sapiens, UniProt P41227+Q9BXJ9).
T1 construct: Human NatA (hNatA) full-length (FL) was cloned; made in house; host or cells: Tnao38 insect cells (baculovirus, pFL vector)
T1 sequence (P41227 1-235): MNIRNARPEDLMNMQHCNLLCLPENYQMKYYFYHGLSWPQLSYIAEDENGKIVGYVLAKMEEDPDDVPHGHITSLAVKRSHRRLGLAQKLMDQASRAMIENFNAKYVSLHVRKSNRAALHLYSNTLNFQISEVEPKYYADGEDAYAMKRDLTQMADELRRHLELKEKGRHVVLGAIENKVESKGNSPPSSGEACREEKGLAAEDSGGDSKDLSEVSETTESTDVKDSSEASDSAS
T1 sequence (Q9BXJ9 1-866 partner): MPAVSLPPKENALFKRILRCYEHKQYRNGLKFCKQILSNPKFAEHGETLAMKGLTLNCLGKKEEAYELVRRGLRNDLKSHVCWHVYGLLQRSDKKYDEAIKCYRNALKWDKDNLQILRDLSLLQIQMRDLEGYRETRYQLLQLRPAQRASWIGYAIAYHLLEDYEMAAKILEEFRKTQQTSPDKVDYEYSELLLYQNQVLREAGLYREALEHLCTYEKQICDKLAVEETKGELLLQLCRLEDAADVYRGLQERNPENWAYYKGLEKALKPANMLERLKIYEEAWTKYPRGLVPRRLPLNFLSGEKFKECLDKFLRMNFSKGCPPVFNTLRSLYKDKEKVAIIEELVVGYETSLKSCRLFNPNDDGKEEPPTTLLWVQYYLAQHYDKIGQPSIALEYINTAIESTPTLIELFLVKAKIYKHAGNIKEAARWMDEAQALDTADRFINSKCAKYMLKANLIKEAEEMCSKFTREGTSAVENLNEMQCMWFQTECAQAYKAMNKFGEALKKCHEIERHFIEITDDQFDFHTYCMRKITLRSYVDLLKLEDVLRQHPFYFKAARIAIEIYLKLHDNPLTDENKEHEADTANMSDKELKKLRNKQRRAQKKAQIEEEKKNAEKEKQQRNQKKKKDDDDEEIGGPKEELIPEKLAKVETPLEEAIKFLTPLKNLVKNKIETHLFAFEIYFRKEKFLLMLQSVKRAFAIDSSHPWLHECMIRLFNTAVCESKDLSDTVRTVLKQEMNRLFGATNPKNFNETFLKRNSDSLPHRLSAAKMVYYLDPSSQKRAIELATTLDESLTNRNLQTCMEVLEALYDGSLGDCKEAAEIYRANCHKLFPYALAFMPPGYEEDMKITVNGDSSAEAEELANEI
The assay is described as follows: In vitro Nt-acetylation assay (NatA, CPM fluorescence). It is filed as biochemical. How it is done:
Gly-starting proteins can be substrates of the Nt-acetyltransferase NatA[3],[21]. Having established direct DCAF10 binding to Ac-Gly N-termini, we next asked whether SFK N-termini are bona fide NatA substrates. We developed an in vitro Nt-acetylation assay comprising purified NatA, acetyl-CoA (Ac-CoA), and the peptide of interest (Fig. 3a, b)[33]. Acetyl-group transfer was assessed using CPM [7-(diethylamino)−3-(4′-maleimidophenyl)−4-methylcoumarin], which reacts specifically with free thiol groups to produce a highly fluorescent product (excitation: 390 nm; emission: 479 nm), allowing detection of CoA production after acetyl-group transfer to the peptide (Supplementary Fig. 4e). We optimized the conditions to determine Michaelis–Menten kinetics for NatA-mediated Nt-acetylation with a target peptide ([…]) previously used for NatA assays and co-crystallization (Supplementary Fig. 4f)[34]. […] Likely, this was due to a Km even higher than that of Src, and implying that the peptide concentrations in the assay might have been insufficient for the reaction to proceed with an appreciable rate. […] Negative controls (COX17 and Ac-Lyn) produced low signals. […] Given the direct association of NatA with SFK N-termini at the ribosomal exit tunnel, however, we surmise that Nt-acetylation of SFKs in cells may proceed despite these unfavorable kinetic parameters.
The assay was performed essentially as described previously. Briefly, peptide substrates (Supplementary Table 1) were incubated with purified human NatA and acetyl-CoA; acetylation was quantified by CPM fluorescence (CoA detection), and Michaelis–Menten parameters were derived from 8-point 1:1 dilution series within the linear range (n = 4 independent enzymatic assays). Full buffer compositions, reagent concentrations, plate format, instrument settings, controls, and fitting procedures are provided in the Supplementary Methods and Tables. […]
301 Cloning, expression, and purification of human NatA
302 Human NatA (hNatA) full-length (FL) was cloned in a pFL vector expressing both
303 genes, NAA15 with a 6× C-term histidine tag (NAA15-6xHIS) and NAA102. The
304 expression was carried out in insect cells (Tnao38) for 72 h infected 1:20 with
305 baculovirus. Washed cell pellets were lysed by sonication in a lysis buffer containing 200
306 mM NaCl, 50 mM HEPES pH 8.0, 20 mM Imidazole, and 2 mM TCEP. The protein
307 purification was performed as a three-step purification, starting with an affinity nickel
308 column, followed by an ion-exchange column with a gradient of 50–300 mM NaCl, and
309 finished with size exclusion chromatography (SEC) using an S200 10/300 column. The
310 main peaks were collected, and the protein was concentrated in the SEC buffer (150 mM
311 NaCl, 50 mM HEPES pH 8.0, 1 mM EDTA). The purified hNatA was flash-frozen in
312 liquid nitrogen and stored at -80°C.
314 In vitro Nt-acetylation assay
315 The method has been described in detail previously2. Briefly, different peptides
316 (Supplementary Table 1) and concentrations (an eight-step, 1:1 dilution series for
317 Michaelis-Menten curves) as indicated were incubated with 20 nM hNatA and 80 µM Ac-
318 CoA in reaction buffer (50 mM HEPES pH 8.0, 0.5 mM EDTA, 0.005% CHAPS) for 60
319 (Src) or 120 min (Lyn), at RT in a 384-well microplate (Corning 4514) (n = 4).
320 Afterwards, the enzymatic reaction was stopped by adding 1:1 DMSO with 10 µM (final
321 concentration 5 µM) of the thiol reactive CPM (7-Diethylamino-3-
322 (4'Maleimidylphenyl)4-Methylcoumarin). After 1 h at RT, the readout was performed
323 with a Tecan Spark® Multimode Microplate Reader (excitation 390 nm, emission 479
324 nm). Background values at 0 µM peptide were subtracted, and control reactions omitting
325 NatA or Ac-CoA were performed. Dilution series of CoA incubated with 5 µM CPM were
326 used to generate a linear equation (y = 10.99*x + 81.06) to calculate acetylation velocities
327 for NatA-mediated peptide acetylation. […]

The test system of another assay is DCAF10. As to the kind of experiment: Peptide pull-down with quantitative MS, HeLa lysate, DCAF10. Conditions: HeLa lysate; for DCAF10 binding (in words): Nt-Ac vs Nt-free peptides. It is filed as binding, human (HeLa).
Where [1] appears, read: 20 nM NatA, 80 µM Ac-CoA, pH 8.0, RT, 120 min, peptide up to 1 mM, CPM fluorescence, mean ± s.d., n = 4, read-out: Km.
Where [2] appears, read: conclusion: poor NatA substrates, read-out: Km, summary statement.
[3] abbreviates: original assay, peptide up to 160 μM.
Where [4] appears, read: rounded values in Peer Review File, read-out: Km, as given in rebuttal.
[5] abbreviates: starting peptide concentration 1 mM.

Protocol for DCAF10: Beads presenting 10-residue synthetic Nt-peptides of proteins of interest in their free (Nt-free) or modified (e.g., Nt-acetylated) versions were incubated with lysates from HeLa cells, followed by MS-based quantification of retained binders (Fig. 1a).
Biotinylated 10-mer Nt-peptides (Nt-free, Nt-acetylated, and, where indicated, Nt-myristoylated; sequences in Supplementary Table 1) were synthesized with a C-terminal Lys3 spacer and biotin, immobilized on magnetic streptavidin beads, and incubated with HeLa or mouse liver lysates. After standardized washes, bound proteins were on-bead reduced/alkylated, digested with LysC/trypsin, desalted, and analysed by LC-MS in DIA mode (Orbitrap Exploris 480) as described previously[24]. Variants included endogenous Nt-sequences, swap and mutant (Ala-Ala-Ala or Nt-amino acids) peptides, and pairwise comparisons of conditions of interest.
All MS experiments were performed as independent biological triplicates. Relative protein quantification was carried out using the label-free algorithm integrated in DIA-NN[53], and statistical testing was performed in Perseus using a two-sided Student’s t test with permutation-based multiple-testing-adjusted p-values[53],[54], as specified in the figure legends. […] Volcano blots were visualized with RStudio (version 2023.06.0). […] Cell experiments were performed as biological replicates, and binding assays as independent assays. […] Data are presented as mean ± s.d. Fold changes are reported as the ratio of the normalized value for the condition of interest to the normalized control value, with mean ± s.d. computed across biological replicates.

By Km is commonly meant the substrate concentration at which the rate is half of its maximum. As to “GCIKSKGKDSKK [Nt-free Lyn, Nt-peptide of Lyn (aa 1–10 + KKK-biotin), Nt-free]”, the Km is 411 ± 94 µM on human NatA (setting [1]), greater than 100 µM on human NatA (setting [2]) and 411 µM on human NatA (setting [4]). The figures for the “Nt-acetylation by NatA (in words)” value at human NatA (setting [3]) and at human NatA (setting [5]) were “did not show Nt-acetylation under these conditions” and “detectable Nt-acetylation”, respectively.

As for “GCVQCKDKEAKK [Nt-free Fyn, Nt-peptide of Fyn, Nt-free]”, the values for the Km at human NatA (setting [1]), on human NatA (setting [2]) and on human NatA (setting [4]) were 235 ± 46 µM, greater than 100 µM and 235 µM, respectively. Further, the “Nt-acetylation by NatA (in words)” value at human NatA (setting [3]) is “did not show Nt-acetylation under these conditions”; on human NatA (setting [5]), “detectable Nt-acetylation”.

Consider “GCIKSKGKDSKK [Ac-Lyn, Nt-peptide of Lyn (aa 1–10 + KKK-biotin), Nt-acetylated]”, for which, in the assay on DCAF10, the “DCAF10 binding, Nt-Ac vs Nt-Myr (in words)” value is given as “DCAF10 selectively recognizes the acetylated form” and the “DCAF10 binding (in words)” value was “bound to DCAF10”. For the same sequence, the “log₂ difference Ac-Lyn vs Ac-THOC7, DCAF10” value in the assay with DCAF10 (n = 3) is on record as 5.83. The “Nt-acetylation by NatA (in words)” value at human NatA (setting [5]) is recorded as “low signals”.

On to “GSNKSKPKDAKK [Ac-Src, Nt-peptide of Src, Nt-acetylated]”, for which, in the assay on DCAF10 (Ac-Src vs Nt-free Src), the “DCAF10 binding in initial pull-downs, log2” value is listed as roughly 5 log2. Moreover, the “DCAF10 binding (in words)” value in the assay with DCAF10 is reported as “bound to DCAF10”. In addition, in the assay on DCAF10 (listed as Nt-acetylated Src), the “DCAF10 binding, Nt-Ac vs Nt-Myr (in words)” value is “DCAF10 selectively recognizes the acetylated form”. The “Nt-acetylation by NatA (in words)” value at human NatA (setting [3]) was “no detectable acetylation”.
